Laboratory results published in ChEMBL document CHEMBL5604063, “ASAP - DENV-2 NS2B-NS3 protease fluorescence dose response” (2024).
Values joined by “and” are separate entries in the source; they are usually repeats but may differ in a detail not shown here. Equal values may be shown once.

Target: Genome polyprotein (dengue virus type 2, UniProt P29990)
Assay type: functional, Thailand/16681/1984

Sequence of Genome polyprotein (P29990 1346-1475 limits assumed): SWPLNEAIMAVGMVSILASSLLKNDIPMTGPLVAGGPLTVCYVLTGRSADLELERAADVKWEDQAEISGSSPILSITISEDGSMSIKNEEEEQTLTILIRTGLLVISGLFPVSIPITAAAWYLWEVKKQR
Sequence of Genome polyprotein (P29990 1476-2093 limits assumed): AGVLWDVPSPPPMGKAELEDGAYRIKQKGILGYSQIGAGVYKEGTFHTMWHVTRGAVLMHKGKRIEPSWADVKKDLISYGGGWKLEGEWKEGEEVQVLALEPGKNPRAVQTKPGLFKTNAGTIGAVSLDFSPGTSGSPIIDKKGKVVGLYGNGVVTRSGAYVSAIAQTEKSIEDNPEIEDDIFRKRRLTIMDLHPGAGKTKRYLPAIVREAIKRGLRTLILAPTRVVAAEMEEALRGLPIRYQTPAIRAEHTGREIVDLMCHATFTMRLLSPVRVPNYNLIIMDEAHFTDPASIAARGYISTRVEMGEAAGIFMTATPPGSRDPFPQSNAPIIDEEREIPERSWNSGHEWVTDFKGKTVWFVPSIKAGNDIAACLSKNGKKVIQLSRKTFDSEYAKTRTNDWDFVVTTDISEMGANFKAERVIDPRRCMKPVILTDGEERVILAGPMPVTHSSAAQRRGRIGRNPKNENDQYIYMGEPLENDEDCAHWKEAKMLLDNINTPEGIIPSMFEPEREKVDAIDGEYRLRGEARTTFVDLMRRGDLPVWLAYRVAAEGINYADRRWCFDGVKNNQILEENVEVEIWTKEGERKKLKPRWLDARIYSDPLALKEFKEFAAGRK

Q: How did the IC50 turn out when `NCc1cccc(NC(=O)[C@@H](NC(=O)OCc2ccccc2)c2ccc(Br)cc2)c1` was run?
A: The IC50 was 88.3 µM and 63.1 µM.

Q: For `O=C1C[C@@H](CNC(=O)c2cc(Cl)ccc2NS(=O)(=O)c2ccc(Oc3ccccc3Cl)cc2)CN1`, which IC50 is on record?
A: Its IC50 is 79.3 µM.

Q: With `COC1CN(C(=O)c2cc(Cl)ccc2NS(=O)(=O)c2ccc(Oc3ccccc3Cl)cc2)C1` as the compound, how does the IC50 read?
A: The IC50 was greater than 99.5 µM.

Q: For `CC(C)(C)OC(=O)Cn1ccnc(N2CC[C@@H](CO)C2)c1=O`, which IC50 is on record?
A: The IC50 was greater than 99.5 µM.

Q: Which IC50 does the source give for `NC[C@H]1C[C@@H](NC(=O)[C@@H](NC(=O)OCc2ccccc2)c2ccc(OCc3ccccc3)cc2)C1` here?
A: Its IC50 is greater than 99.5 µM.

Q: For `CC[C@H](C#N)NC(=O)c1cc(Cl)ccc1NS(=O)(=O)c1ccc(Oc2ccccc2Cl)cc1`, which IC50 is on record?
A: The IC50 was 42.4 µM.

Q: Which IC50 does the source give for `O=C(NC[C@H]1CCCO1)c1cc(Cl)ccc1NS(=O)(=O)c1ccc(Oc2ccccc2Cl)cc1` here?
A: Its IC50 is greater than 99.5 µM.

Q: With `O=C(NCc1c[nH]nn1)c1cc(Cl)ccc1NS(=O)(=O)c1ccc(Oc2ccccc2Cl)cc1` as the compound, how does the IC50 read?
A: The IC50 was 29.9 µM.

Q: How did the IC50 turn out when `O=C(N[C@@H](C(=O)NC1CNC1)c1ccc(OCc2ccccc2)cc1)OCc1ccccc1` was run?
A: Its IC50 is greater than 99.5 µM.

Q: How did the IC50 turn out when `NC[C@H]1CCN1C(=O)[C@@H](NC(=O)OCc1ccccc1)c1ccc(OCc2ccccc2)cc1` was run?
A: Its IC50 is greater than 99.5 µM.

Q: Which IC50 does the source give for `CC(C)Oc1ccc(S(=O)(=O)Nc2ccc(Cl)cc2C(=O)O)cc1` here?
A: Its IC50 is greater than 99.5 µM.

Q: With `O=C(NC[C@H]1CCOC1)c1cc(Cl)ccc1NS(=O)(=O)c1ccc(Oc2ccccc2Cl)cc1` as the compound, how does the IC50 read?
A: The IC50 was 32.9 µM and 24 µM.

Q: How did the IC50 turn out when `NCc1cccc(NC(=O)[C@@H](NC(=O)OCc2ccccc2)C2CCCCC2)c1` was run?
A: The IC50 was greater than 99.5 µM.

Q: How did the IC50 turn out when `NCc1cccc(NC(=O)[C@@H](Cc2ccccc2)NC(=O)OCc2ccccc2)c1` was run?
A: Its IC50 is greater than 99.5 µM.

Q: How did the IC50 turn out when `C[C@@H](N)c1cccc(NC(=O)[C@@H](NC(=O)OCc2ccccc2)c2ccc(OCc3ccccc3)cc2)c1` was run?
A: Its IC50 is greater than 99.5 µM.

Q: `C#CCn1ccnc(N2CC[C@H](CO)C2)c1=O` was tested. Which IC50 did it give?
A: Its IC50 is greater than 99.5 µM.

Q: How did the IC50 turn out when `O=S(=O)(c1ccc(Oc2ccccc2Cl)cc1)n1ccc2cc(Cl)ccc21` was run?
A: The IC50 was greater than 99.5 µM.

Q: With `CCn1ccnc(-n2cc([C@@H]3NC(=O)NC3=O)c3ccccc32)c1=O` as the compound, how does the IC50 read?
A: The IC50 was greater than 99.5 µM.

Q: With `NCc1cccc(CNC(=O)[C@@H](NC(=O)OCc2ccccc2)c2ccc(OCc3ccccc3)cc2)c1` as the compound, how does the IC50 read?
A: The IC50 was 21.7 µM and 12 µM.

Q: Which IC50 does the source give for `O=C(Nc1ccc(Cl)cc1C(=O)O)c1ccc(Oc2ccccc2Cl)cc1` here?
A: Its IC50 is 42.5 µM.

Q: For `C[C@@H](O)CNC(=O)c1cc(Cl)ccc1NS(=O)(=O)c1ccc(Oc2ccccc2Cl)cc1`, which IC50 is on record?
A: Its IC50 is 56.6 µM.

Q: With `CC(=O)N[C@@H](C(=O)Nc1cccc(CN)c1)c1ccc(OCc2ccccc2)cc1` as the compound, how does the IC50 read?
A: Its IC50 is greater than 99.5 µM.

Q: With `NCc1cccc(NC(=O)[C@H]2c3ccc(OCc4ccccc4)cc3CCN2C(=O)OCc2ccccc2)c1` as the compound, how does the IC50 read?
A: Its IC50 is greater than 99.5 µM.

Q: With `NCc1cccc(NC(=O)[C@@H]2c3ccsc3CCN2C(=O)OCc2ccccc2)c1` as the compound, how does the IC50 read?
A: The IC50 was greater than 99.5 µM.

Q: `CC(C)(C)Oc1ccc(S(=O)(=O)Nc2ccc(Cl)cc2C(=O)O)cc1` was tested. Which IC50 did it give?
A: Its IC50 is greater than 99.5 µM.

Q: Which IC50 does the source give for `O=c1c(N2CC[C@H](CO)C2)nccn1C1CC1` here?
A: The IC50 was greater than 99.5 µM.

Q: For `COc1cc(N[C@@H](C(=O)N2CCc3ccc(OC(F)(F)F)cc32)c2ccc(Cl)cc2)cc(OCCCC(=O)O)c1`, which IC50 is on record?
A: Its IC50 is 14.2 µM.

Q: With `COc1ccc(S(=O)(=O)Nc2ccc(Cl)cc2C(=O)O)cc1` as the compound, how does the IC50 read?
A: Its IC50 is greater than 99.5 µM.

Q: For `O=C(O)c1cc(Cl)ccc1NS(=O)(=O)c1ccc(Br)cc1`, which IC50 is on record?
A: The IC50 was greater than 99.5 µM.

Q: For `O=C(c1cc(Cl)ccc1NS(=O)(=O)c1ccc(Oc2ccccc2Cl)cc1)N1CCC[C@H](O)C1`, which IC50 is on record?
A: Its IC50 is 63.6 µM.

Q: With `CN(C(=O)[C@@H](NC(=O)OCc1ccccc1)c1ccc(OCc2ccccc2)cc1)c1cccc(CN)c1` as the compound, how does the IC50 read?
A: Its IC50 is greater than 99.5 µM.

Q: Which IC50 does the source give for `O=C(NCc1cnn(CCO)c1)c1cccc2c1NC(=O)[C@]1(CCCN1)C2` here?
A: Its IC50 is greater than 99.5 µM.

Q: `O=C(N[C@@H](C(=O)N[C@H]1CCCNC1)c1ccc(OCc2ccccc2)cc1)OCc1ccccc1` was tested. Which IC50 did it give?
A: Its IC50 is greater than 99.5 µM.

Q: With `NCc1ccc(C[C@H](NC(=O)OCc2ccccc2)C(=O)Nc2cccc(CN)c2)cc1` as the compound, how does the IC50 read?
A: The IC50 was greater than 99.5 µM.

Q: Which IC50 does the source give for `COc1ccc(S(=O)(=O)Nc2cc(F)c(Cl)cc2C(=O)O)cc1` here?
A: The IC50 was greater than 99.5 µM.

Q: Which IC50 does the source give for `C[C@@H](CS(C)(=O)=O)NC(=O)c1cc(Cl)ccc1NS(=O)(=O)c1ccc(Oc2ccccc2Cl)cc1` here?
A: Its IC50 is 80.9 µM.

Q: Which IC50 does the source give for `CCn1ccnc(N(C)[C@@H](CO)Cc2c[nH]c3ccccc23)c1=O` here?
A: The IC50 was greater than 99.5 µM.

Q: Which IC50 does the source give for `NCc1ccc2c(c1)N(C(=O)[C@@H](NC(=O)OCc1ccccc1)c1ccc(OCc3ccccc3)cc1)CC2` here?
A: The IC50 was greater than 99.5 µM.
